Here are results for 2 molecules from article PMC12207533, “Structure-guided design of a methyltransferase-like 3 (METTL3) proteolysis targeting chimera (PROTAC) incorporating an indole–nicotinamide chemotype” (RSC Medicinal Chemistry, 2025).

Broadly, the Kd is the concentration at which binding is half-saturated. A word on the IC50: it is the concentration that gives 50% inhibition.

The target of experiment [1] is METTL3. Set-up: method as in PMID 33902106. Particulars: cited from earlier work.
For experiment [2], the target named is T1, METTL3 (Homo sapiens, UniProt Q86U44).
T1 construct: endogenous in cells; host or cells: MOLM-13
The experiment can be described thus: Immunoblotting of METTL3 protein levels in MOLM-13 cells. Format: cell-based. To be noted: MOLM-13, 0.1-10 μM, 16 h. On the procedure:
MOLM-13 were seeded in 12-well cell culture plates at a density of 1 × 10^6 cells per mL and treated with DMSO (final: 0.1%) or different concentrations of PROTAC degraders in DMSO at the indicated times. Treatments were conducted in biological triplicate with varying passages of MOLM-13 cells. The cells were harvested by centrifugation at 500g for 5 min and washed with PBS. The cells were lysed with RIPA lysis buffer with the addition of protease inhibitor (1× cOMPLETE), and insoluble cellular parts were separated by centrifugation (12 000g for 10 min), subsequently, the supernatant was boiled with 1× Laemmli sample buffer (Carl Roth) for 5 min at 95 °C. Proteins were separated by SDS–PAGE on 4–20% Criterion™ TGX™ Precast Protein Gels (Bio-Rad) and transferred to Amersham™ Protean® 0.45 μm nitrocellulose membrane (Cytiva) using semi-dry transfer (25 V, 1 A, Towbin buffer). The membrane was blocked with 5% milk (Carl Roth) in TBST buffer and incubated with the following primary antibodies: Anti-METTL3 (1 : 1000, Abcam, ab195352), anti-METTL14 (1 : 1000, Abcam, ab220030), anti-Bcl2 (1 : 1000, Cell Signaling Technology [CST], EPR16891), anti-Mcl-1 (1 : 1000, CST, 5453 T), anti-Bcl-XL (1 : 1000, CST, 2764 T), anti-vinculin (1 : 1000, CST, 13901) or anti-GAPDH (1 : 5000, CST, D17C4) overnight at 4 °C. Subsequently, the membrane was incubated for 1 h at RT with secondary antibodies: anti-rabbit (1 : 2000, VWR, NA934) or anti-mouse (1 : 2000, VWR, 102646-160). The protein bands were detected via chemiluminescence using Pierce™ ECL western blotting substrate and a Fusion FX imaging system (Vilber). The ImageLab software (Bio-Rad) was used for band quantification.
(Immunoblotting shows a protein as a band on a membrane.)

Experiment [3] concerns MOLM-13 cells. Kind of experiment: Cell viability assay (CellTiter Glo 2.0). Format: cell-based, human. Particulars: MOLM-13, 72 h; read-out: IC50 (cell viability inhibition). On the procedure: To determine cell viability, MOLM-13 cells were treated with the indicated compounds in a 1 : 1 serial dilution, with pure DMSO (final: 0.1%) as the negative control. Briefly, 1000 cells were seeded in black Greiner half-area 96-well plates and incubated for 72 h with inhibitors from DMSO stocks under standard cultivation conditions. Then, Promega CellTiter Glo 2.0 reagent was added to each well according to the manufacturer's protocols, and luminescence was measured using a Tecan Spark 10 M. Experiments were conducted in technical triplicate. Data was normalized to the DMSO control and analyzed with GraphPad Prism 8.0.1 to determine EC50 values. Synergistic effects of venetoclax and AF151 on cell MOLM-13 viability were conducted accordingly, with dilution series of both compounds analyzed using the SynergyFinder+ webtoolkit.[57]
(In general: In ATP-based viability assays light output follows the ATP content of the culture.)

In experiment [4] the test system is METTL14 mRNA. The experiment can be described thus: RT-qPCR of METTL14 mRNA expression. Format: cell-based, human. Particulars: MOLM-13, AF151 2 μM or STM2457 10 μM, 24 h and 48 h. On the procedure: (§1) To determine mRNA expression levels of METTL3 and METTL14, MOLM-13 cells were treated in triplicate with compound 41 (AF151, 2 μM), STM2457 (10 μM), and DMSO for 24 resp. 48 h. Afterward, total RNA was extracted using the TRIzol™ reagent (Thermo Fisher Scientific) and purified with the Monarch® Spin RNA Cleanup Kit (New England Biolabs). RT-qPCR was conducted using the two-step GoTaq® RT-qPCR system (Promega) following the manufacturer's protocol. The data were normalized to the DMSO control and GAPDH housekeeping gene (ΔΔCt) using GraphPad Prism 8.0.1.
On the technique in general: Quantitative PCR measures a nucleic acid by following its amplification.

Experiment [5] deals with METTL3 mRNA. Kind of experiment: RT-qPCR of METTL3 mRNA expression. Format: cell-based, human. To be noted: MOLM-13, AF151 2 μM or STM2457 10 μM, 24 h and 48 h. On the procedure: as §1

T1 sequence (Q86U44 whole entry): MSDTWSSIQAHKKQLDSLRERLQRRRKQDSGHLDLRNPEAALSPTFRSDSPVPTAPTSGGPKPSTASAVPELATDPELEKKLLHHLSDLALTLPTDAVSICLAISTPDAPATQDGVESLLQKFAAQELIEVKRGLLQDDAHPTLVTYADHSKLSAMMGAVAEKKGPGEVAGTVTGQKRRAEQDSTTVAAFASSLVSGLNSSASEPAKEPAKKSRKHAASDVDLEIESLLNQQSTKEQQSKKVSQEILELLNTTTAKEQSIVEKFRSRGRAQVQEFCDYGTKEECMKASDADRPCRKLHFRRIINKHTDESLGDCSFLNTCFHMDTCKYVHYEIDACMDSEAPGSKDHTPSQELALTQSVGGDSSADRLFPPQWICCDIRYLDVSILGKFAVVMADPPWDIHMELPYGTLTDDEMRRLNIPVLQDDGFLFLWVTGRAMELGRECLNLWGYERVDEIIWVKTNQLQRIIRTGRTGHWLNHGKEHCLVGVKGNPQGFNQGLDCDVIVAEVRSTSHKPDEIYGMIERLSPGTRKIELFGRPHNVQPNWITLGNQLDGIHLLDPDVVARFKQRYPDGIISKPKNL

As to STM2457 [reference compound], in experiment [1], the Kd is 1.4 nM. Besides, the “METTL3 degradation (Western blot screening)” value in experiment [2] is “do not func?on as METTL3 degraders”. Moreover, the concentration for half-maximal inhibition (IC50) in experiment [3] turned out to be 1820 nM. In experiment [4], the “METTL14 mRNA level (ΔΔCt)” value is “no significant changes”. The “METTL3 mRNA level (ΔΔCt)” value in experiment [5] was “no significant changes”.

Turning to `CC1(C)CCN(Cc2ccc3nc(Cn4cc(-c5cc(Br)cc6[nH]ncc56)nn4)cn3c2)CC1` [STM3006, reference compound], in experiment [2], the “METTL3 degradation (Western blot screening)” value is recorded as “do not func?on as METTL3 degraders”.
